Columns and labels:
Botrytis cinerea [1] = format: cell-based; conditions: 120 h, 25 ppm by volume, Vogel medium, 20° C., five days, dark, read-out: growth inhibition ratio
Fusarium graminearum = experiment: microbe, parasite or virus in culture; format: cell-based; conditions: 96 h, read-out: growth inhibition ratio
Botrytis cinerea [2] = experiment: Control test of cucumber gray mold (sprayed young cucumber seedlings); format: in vivo; conditions: 96 h, four days after inoculation; for pest or weed control at 25 ppm: 25 ppm by mass spray; for pest or weed control at 125 ppm: 125 ppm by mass spray
Protocol: Then, the drug liquid was sprayed onto young cucumber seedlings cultivated in a nursery pot (variety “Jihai”-based, cotyledon stage), and then air-dried. […] They were left still in a moist room at 20° C. Four days after inoculation, leaves of the young cucumber seedlings were visually observed, and the control value was calculated from the lesion area ratio in accordance with the following equation. [formula]

Venturia inaequalis = experiment: Control test of apple scab disease (sprayed young apple seedlings); format: in vivo; conditions: 125 ppm by mass spray, 12 to 14 days after inoculation
[3] = system: Erysiphe graminis f.sp.tritici; experiment: Control test of wheat powdery mildew disease (sprayed young wheat seedlings); format: in vivo; conditions: Blumeria graminis, 144 h, 125 ppm by mass spray, six days after inoculation
Colletotrichum acutatum = experiment: Fungicidal effect test against fungi causing apple anthracnose; conditions: 96 h, read-out: growth inhibition ratio
Glomerella cingulata = experiment: Fungicidal effect test against fungi causing grape ripe rot disease; conditions: Colletotrichum gloeosporioides, 72 h, read-out: growth inhibition ratio

COC(=O)N(Cc1ccc(OC)cc1C)NC(=O)c1cc(C)ncc1Oc1cccc(Br)c1F [b-108]
≥ 75%: inhibition of growth at 25 ppm (Botrytis cinerea [1]) | inhibition of growth at 25 ppm (Fusarium graminearum) | pest or weed control at 25 ppm (Botrytis cinerea [2]) | pest or weed control at 125 ppm (Botrytis cinerea [2]) | pest or weed control at 125 ppm (Venturia inaequalis) | pest or weed control at 125 ppm [3] | inhibition of growth at 25 ppm (Colletotrichum acutatum) | inhibition of growth at 25 ppm (Glomerella cingulata)

COC(=O)N(Cc1ccc(C)cc1C)NC(=O)c1ccncc1Oc1cccc(C2CC2)c1F [b-150]
≥ 75%: inhibition of growth at 25 ppm (Botrytis cinerea [1]) | inhibition of growth at 25 ppm (Fusarium graminearum) | pest or weed control at 25 ppm (Botrytis cinerea [2]) | pest or weed control at 125 ppm (Botrytis cinerea [2]) | pest or weed control at 125 ppm (Venturia inaequalis) | pest or weed control at 125 ppm [3] | inhibition of growth at 25 ppm (Colletotrichum acutatum) | inhibition of growth at 25 ppm (Glomerella cingulata)

Cc1ccc(CN(NC(=O)c2cc(C)nnc2Oc2cccc(C3CC3)c2F)C(=O)OC2CC2)c(C)c1 [b-184, Cyclopropyl 2-(3-(3-cyclopropyl-2-fluorophenoxy)-6-methylpyridazine-4-carbonyl)-1-(2,4-dimethylbenzyl)hydrazine-1-carboxylate]
≥ 75%: inhibition of growth at 25 ppm (Botrytis cinerea [1]) | inhibition of growth at 25 ppm (Fusarium graminearum) | pest or weed control at 25 ppm (Botrytis cinerea [2]) | pest or weed control at 125 ppm (Botrytis cinerea [2]) | pest or weed control at 125 ppm (Venturia inaequalis) | pest or weed control at 125 ppm [3] | inhibition of growth at 25 ppm (Colletotrichum acutatum) | inhibition of growth at 25 ppm (Glomerella cingulata)

COC(=O)N(Cc1ccc(C)cc1C)NC(=O)c1cc(C)nnc1Oc1cccc(F)c1 [b-112]
≥ 75%: inhibition of growth at 25 ppm (Botrytis cinerea [1]) | inhibition of growth at 25 ppm (Fusarium graminearum) | pest or weed control at 125 ppm (Botrytis cinerea [2]) | pest or weed control at 125 ppm (Venturia inaequalis) | pest or weed control at 125 ppm [3] | inhibition of growth at 25 ppm (Colletotrichum acutatum) | inhibition of growth at 25 ppm (Glomerella cingulata)

COC(=O)N(Cc1ccc(C)cc1C)NC(=O)c1cc(C)ncc1Oc1cccc(Br)c1F [b-88]
≥ 75%: inhibition of growth at 25 ppm (Botrytis cinerea [1]) | inhibition of growth at 25 ppm (Fusarium graminearum) | pest or weed control at 25 ppm (Botrytis cinerea [2]) | pest or weed control at 125 ppm (Botrytis cinerea [2]) | pest or weed control at 125 ppm (Venturia inaequalis) | pest or weed control at 125 ppm [3] | inhibition of growth at 25 ppm (Colletotrichum acutatum) | inhibition of growth at 25 ppm (Glomerella cingulata)

COC(=O)N(Cc1ccc(C)cc1C)NC(=O)c1c(C)cnnc1Oc1cccc(Cl)c1F [b-191]
≥ 75%: inhibition of growth at 25 ppm (Botrytis cinerea [1]) | inhibition of growth at 25 ppm (Fusarium graminearum) | pest or weed control at 25 ppm (Botrytis cinerea [2]) | pest or weed control at 125 ppm (Botrytis cinerea [2]) | pest or weed control at 125 ppm (Venturia inaequalis) | pest or weed control at 125 ppm [3] | inhibition of growth at 25 ppm (Colletotrichum acutatum) | inhibition of growth at 25 ppm (Glomerella cingulata)

COC(=O)N(Cc1ccc(C)cc1C)NC(=O)c1cc(C)nnc1Oc1cccc(C(F)(F)F)c1F [b-36]
≥ 75%: inhibition of growth at 25 ppm (Botrytis cinerea [1]) | inhibition of growth at 25 ppm (Fusarium graminearum) | pest or weed control at 25 ppm (Botrytis cinerea [2]) | pest or weed control at 125 ppm (Botrytis cinerea [2]) | pest or weed control at 125 ppm (Venturia inaequalis) | pest or weed control at 125 ppm [3] | inhibition of growth at 25 ppm (Colletotrichum acutatum) | inhibition of growth at 25 ppm (Glomerella cingulata)

COC(=O)N(Cc1ccc(C)cc1C)NC(=O)c1c(Oc2cccc(Cl)c2F)nnc(Cl)c1C [b-227]
≥ 75%: inhibition of growth at 25 ppm (Botrytis cinerea [1]) | inhibition of growth at 25 ppm (Fusarium graminearum) | pest or weed control at 25 ppm (Botrytis cinerea [2]) | pest or weed control at 125 ppm (Botrytis cinerea [2]) | pest or weed control at 125 ppm (Venturia inaequalis) | pest or weed control at 125 ppm [3] | inhibition of growth at 25 ppm (Colletotrichum acutatum) | inhibition of growth at 25 ppm (Glomerella cingulata)

COC(=O)N(Cc1ccc(C)cc1OC)NC(=O)c1cc(C)nnc1Oc1cccc(C2CC2)c1F [b-153]
≥ 75%: inhibition of growth at 25 ppm (Botrytis cinerea [1]) | inhibition of growth at 25 ppm (Fusarium graminearum) | pest or weed control at 25 ppm (Botrytis cinerea [2]) | pest or weed control at 125 ppm (Botrytis cinerea [2]) | pest or weed control at 125 ppm (Venturia inaequalis) | pest or weed control at 125 ppm [3] | inhibition of growth at 25 ppm (Colletotrichum acutatum) | inhibition of growth at 25 ppm (Glomerella cingulata)

COC(=O)N(Cc1ccc(Cl)cc1Cl)NC(=O)c1cc(C)ncc1Oc1cccc(C2CC2)c1F [b-75]
≥ 75%: inhibition of growth at 25 ppm (Botrytis cinerea [1]) | inhibition of growth at 25 ppm (Fusarium graminearum) | pest or weed control at 25 ppm (Botrytis cinerea [2]) | pest or weed control at 125 ppm (Botrytis cinerea [2]) | pest or weed control at 125 ppm (Venturia inaequalis) | pest or weed control at 125 ppm [3] | inhibition of growth at 25 ppm (Colletotrichum acutatum) | inhibition of growth at 25 ppm (Glomerella cingulata)
